Measurements as given in US20050059626A1, “Methods of preventing and treating viral infections using immunomodulatory polynucleotide sequences” (priority 2000, published 2005).

How the values were obtained:
[1] = system: HSV-2 strain MS; experiment: Recurrent genital HSV-2 disease in guinea pigs; assay type: in vivo, Swiss Hartley guinea pigs
[2] = system: HSV-2; experiment: Viral titer from Vero cells pre-treated with oligonucleotide, HSV-2; assay type: cell-based, African Green monkey (Vero cells); conditions: cells infected with HSV-2
Experimental: Vero cells, a cell line derived from African Green monkey kidney, were pre-treated with varying concentrations of ISS or non-ISS oligonucleotides for varying times prior to the addition of HSV-1 or HSV-2. Oligonucleotides were used at 1 μg/ml or 10 μg/ml and the cells were incubated with the oligonucleotides for 30 seconds, 10 minutes or 24 hours. Viral titers were calculated as a percent of control titer generated by cells not treated with the oligonucleotides. The data are expressed as percent of control titer.

[3] = system: HSV-2 strain 186; experiment: Vaginal HSV-2 lethal challenge in mice; assay type: in vivo, Swiss Webster mice
Description: Outbred Swiss Webster mice, vaginally infected with HSV-2 strain 186, were used as a model of HSV infection. In these animals, the first indication of viral infection is hair loss and erythema (HLE) near the vagina occurring, on average, 5 days after inoculation. The next stage of infection is indicated by chronic wetness (CW) due to loss of bladder control, on average, 6 days after inoculation. A portion (about 50% of infected mice) of the animals develop hind limb paralysis (HLP) at approximately the same time point. Death, which is often preceded by evidence of CNS disease, occurs an average of 7-9 days after viral inoculation.
Mice were prepared for infection by an initial two-dose treatment with depopriven to synchronize cycles and to thin the vaginal epithelium. Vaginal mucous was removed by swabbing with calcium alginate, then a lethal challenge dose (determined by titration) of HSV-2 strain 186 was delivered by positive-displacement pipettor. Inoculated mice were randomly grouped into one of 4 treatment groups (n=15/group). Animals in group 1 received no treatment and served as a control for the study. Animals in the second and third groups were treated topically with 100 μg of an ISS-containing phosphorothioate oligonucleotide (5′-[…]-3′) (SEQ ID NO:1) suspended in phosphate-buffered saline (PBS). The groups were treated 2 or 6 hours after inoculation. As a vehicle control, group four was treated with PBS alone.
In another experiment, inoculated mice were randomly grouped into 8 treatment groups (n=16/group). Animals in the groups received treatments as outlined in Table 11 below. The groups were treated 2 hours after virus inoculation.

[4] = system: CRPV-E8m; experiment: Rabbit papilloma model (CRPV-E8m), papilloma geometric mean diameter
Experimental: In another experiment, a mutant of CRPV which induces small papillomas, CRPV-E8m, was used to induce papillomas on five rabbit treatment groups (five rabbits per group). In each animal, papillomas on the left side of the animal received treatments and papillomas on the right side were untreated. Four of the treatment groups received doses between 100 μg and 2000 μg of ISS as intradermal injections per papilloma at several treatment regimes and the fifth group received injections of PBS as control, as outlined below.
Four papillomas, initiated with CRPV-E8m plasmid DNA, were established on each rabbit. Skin at the site of papilloma initiation was made hyperplastic using a mixture of turpentine and acetone prior to viral DNA administration. The size of papillomas was measured (three dimensions, in mm) and the GMD calculated for each papilloma.

[5] = system: RSV A2; experiment: RSV lung titer in cotton rats after local (intranasal) administration; assay type: in vivo, cotton rat (Sigmoden hispidis); conditions: for RSV titer (log10/g lung) Mean / RSV titer (log10/g lung) in CR No. 1 / RSV titer (log10/g lung) in CR No. 2 / RSV titer (log10/g lung) in CR No. 3 / RSV titer (log10/g lung) in CR No. 4: non-ISS = SEQ ID NO:9
Experimental: Cotton rats, 50-100 g and 4-12 weeks old (Sigmoden hispidis) of either sex were used in these studies. All of the animals were descendants of two pair of cotton rats obtained in 1984 from the Small Animal Section of the Veterinary Research Branch, Division of Research Services, National Institutes of Health.
RSV strain A2 was purchased from the ATCC (ATCC VR26). Working stocks of this virus were prepared as described in detail by Wyde et al. (1995) Pediatr. Res. 38:543-550. ISS sequence tested for RSV experiments was 5′-[…]-3′ (SEQ ID NO:1) (phosphorothioate). Control, non-ISS sequences used were 5′-[…]-3′ (SEQ ID NO:9) (phosphorothioate) and 5′-[…]-3′ (SEQ ID NO:10) (phosphorothioate), as well as PBS.
RSV levels in virus pools and lung lavage fluids (L.F.) were determined using sterile 96-well, flat bottom tissue culture plates (Falcon 3072), serial 3-fold dilutions and 2% FCS-MEM as described in detail previously (Wyde et al., 1995). […] The amount of virus in virus pools was expressed as a median tissue culture infectious doses (TCID50/ml, log10). Titers of virus in L.F. were expressed as TCID50/g lung tissue (log10). The minimum detectable virus concentration in these assays was 1.3 log10 TCID50/ml (virus pools) or 1.6 log10 TCID50/g lung.
On day −3 (i.e., 3 days before infection with virus), 20 cotton rats (CRs) were selected and divided into five groups of four animals. The animals in Group 1 were lightly anesthetized and 50 μL of phosphate buffered saline (PBS) was administered intranasally (IN). The CRs in Group 2 were similarly administered 150 μg of ISS (5′-[…]-3′) (SEQ ID NO:1), while the animals in Group 3 were similarly administered 150 μg of control non-ISS sequence 5′-[…]-3′ (SEQ ID NO:9). Three days later, on Day 0, each of CRs in Group 4 were anesthetized and 150 μg of ISS was administered IN, and the animals in Group 5 were administered, in a like manner, 150 μg of control non-ISS sequence 5′-[…]-3′ (SEQ ID NO:9).
Thirty minutes later, all of the CRs were inoculated IN with 100 median tissue culture infectious doses (TCID50) of RSV A2. Four days later (Day 4), all of the animals were sacrificed and the lungs of each animal were removed, lavaged, and assessed for RSV levels.

[6] = 100 μg topical 2 h post-inoculation (PI)
[7] = 100 μg topical 6 h post-inoculation (PI)
[8] = 150 μg IN Day 0 (30 min before RSV), lungs Day 4
[9] = 150 μg IN Day −3, RSV Day 0, lungs Day 4

Substance: 5′-TGACTGTGAACGTTCGAGATGA-3′ [SEQ ID NO: 1]
- Frequency of recurrences (recurrent lesions) ([1]; 200 μg at 21 days PI (one group also days 42 and 63), ANOVA p=0.012): significant reduction in the frequency of recurrences
- Effect on frequency of viral shedding ([1]; single topical treatment 1 mg at day 21): unaffected
- Magnitude of viral shedding ([1]; single topical treatment 1 mg at day 21, vs control groups, p<0.001): significantly reduced
- Cumulative mean recurrent lesion days ([1]; single topical treatment 1 mg at day 21, vs non-ISS control or untreated): significantly decreased the cumulative mean recurrent lesion days
- Viral titer, percent of control titer ([2]; cells pre-treated 1 μg/ml, 30 sec): 101% of control titer
- Viral titer, percent of control titer ([2]; cells pre-treated 1 μg/ml, 10 min): 98% of control titer
- Viral titer, percent of control titer ([2]; cells pre-treated 1 μg/ml, 24 hr): 99% of control titer
- Viral titer, percent of control titer ([2]; cells pre-treated 10 μg/ml, 30 sec): 101% of control titer
- Viral titer, percent of control titer ([2]; cells pre-treated 10 μg/ml, 10 min): 101% of control titer
- Viral titer, percent of control titer ([2]; cells pre-treated 10 μg/ml, 24 hr): 99% of control titer
- Overall effect on HSV2 disease (incidence, survival, time to symptoms and death) ([3]; 100 μg topical 2 or 6 hours after inoculation): decreased incidence (i.e., individuals showing symptoms of HSV2 infection), improved survival and delays in both appearance of symptoms and time to death
- Incidence (%) [3, 6]: 60%
- Incidence (animals with symptoms/total) [3, 6]: 9/15
- Survival (%) [3, 6]: 40%
- Survival (survivors/total) [3, 6]: 6/15
- Time to Death [3, 6]: 12 days
- Time to Symptoms [3, 6]: 6.6 days
- Incidence (%) [3, 7]: 80%
- Survival (%) [3, 7]: 27%
- Survival (survivors/total) [3, 7]: 4/15
- Time to Death [3, 7]: 10.6 days
- Time to Symptoms [3, 7]: 5.75 days
- Change in average time to death ([3]; animals that died, treated two hours after infection): increased by an average of over two days
- Size of papillomas (GMD), treated versus untreated ([4]; Treatment Group C: 500 μg/injection, 1 time/week days 47-86, intradermal): reduction in the size of the ISS treated papillomas compared to untreated papillomas
- Papilloma growth rates, treated versus untreated papillomas ([4]; Treatment Groups A, B, D (100 μg 3x/week; 100 μg 1x/week; 2000 μg weeks 7 and 10), intradermal): Minimal differences
- RSV titer (log10/g lung) Mean [5, 8]: 3.9 log10/g lung
- RSV titer (log10/g lung) in CR No. 1 [5, 8]: 4 log10/g lung
- RSV titer (log10/g lung) in CR No. 2 [5, 8]: 4 log10/g lung
- RSV titer (log10/g lung) in CR No. 3 [5, 8]: 4.5 log10/g lung
- RSV titer (log10/g lung) in CR No. 4 [5, 8]: 3 log10/g lung
- RSV titer (log10/g lung) Mean [5, 9]: 2.8 log10/g lung
- RSV titer (log10/g lung) in CR No. 1 [5, 9]: 3 log10/g lung
- RSV titer (log10/g lung) in CR No. 2 [5, 9]: 3 log10/g lung
- RSV titer (log10/g lung) in CR No. 3 [5, 9]: 2.5 log10/g lung
- RSV titer (log10/g lung) in CR No. 4 [5, 9]: 2.5 log10/g lung
- Effect on RSV viral titer in infected tissue ([5]; IN administration 3 days before infection): effective at reducing viral titers
- Effect on RSV viral titer in infected tissue ([5]; first IN administration on the day of infection): not effective
